The text below walks through data of patent US20230286960A1, “ALLOSTERIC CHROMENONE INHIBITORS OF PHOSPHOINOSITIDE 3-KINASE (PI3K) FOR THE TREATMENT OF DISEASE” (Petra Pharma Corporation, priority 2020, published 2023).

Data set [1] is described as follows: Mouse PK Assays. Set-up: PK-Mouse: PO AUC-last/dose: unit not given here. To be noted: fed. Format: in vivo.
The target of data set [2] is human full length PIK3CA wild-type (p110α/p85α) (Homo sapiens (Human), UniProt P42336). As to the kind of experiment: PI3K-alpha kinase (PIK3CA) activity, wild-type, Transcreener ADP2 FI assay. The note with it: PI3K-α (PIK3CA) biochemical. As to the method:
(§1) PI3K-Alpha Kinase (PIK3CA) Activity, Wild-Type and H1047R Mutant and Determining IC50 Values for Inhibitors
(§2) Recombinant, catalytically active human full length PIK3KA Wild-type and H1047R mutant were purchased as 1:1 complex of N-terminal 6× his tagged p110 ? (catalytic) and untagged p85 ? (regulatory subunit) from EMD Millipore Sigma (cat. no. 14-602M and 14-792M, respectively). The enzyme stocks were diluted to 5× stocks in buffer (20 mM HEPES pH 7.4, 100 mM NaCl, 0.5 mM EGTA, 0.01% triton-x-100) just before use. PIP2diC8 (Avanti Polar Lipids Inc., cat. no. 850185) or phosphoinositol-4,5-bisphosphate with phosphoserine (PIP2:PS) membrane (Thermo Fisher Scientific, cat. no. PV5100) was used as lipid substrates. PIP2diC8 lyophilized powder and PIP2:PS (1:19) membrane stock (1 mM in PIP2) were separately dissolved in milliQ water to a concentration of 250 uM and stored in −20° C. 10 mM stocks of compounds were serially diluted (3×) in neat DMSO and stored in a dessicator at room temperature. 5× compound stocks in 25% DMSO were prepared fresh from neat DMSO stocks.
(§3) Wild-type (WT) and H1047R mutant protein, along with buffer components (except ATP), were incubated with or without compound at 27° C. for 1 h. After incubation, the reaction was initiated by the addition of 5 uL of 125 uM ATP. A typical assay mixture (25 uL) comprised 40 mM HEPES buffer, pH 7.4, 25 mM MgCl2, 0.01% v/v triton-X-100, 5% v/v DMSO, 20 mM NaCl, 1-5 nM wt or H1047R, 25 uM ATP, and 50 uM PIP2diC8 or PIP2 in membrane. The reaction was allowed to proceed until about […] (2.5 uM ADP) after which time, 10 uL of reaction mixture was quenched with 25 uL of transcreener reagent (Transcreener ADP2 FI assay kit, BellBrook labs, Cat. No. 3013). The contents were incubated at rt for 1 h and fluorescence was measured using a plate reader (Paradigm, Molecular Devices). The same assay was also run at pH 6.0 or 6.4 using MOPS buffer (Fisher BioReagents, CAS 1132-61-2). A calibration curve was generated under identical buffer conditions with varying ADP amounts. Using that, the observed fluorescence was converted to uM ADP. A plot between [ADP] and log[I] yielded the dose-response curves that enabled the calculation of IC50s.

The target in data set [3] is human full length PIK3CA H1047R mutant (p110α/p85α) (Homo sapiens (Human), UniProt P42336, H1047R). As to the kind of experiment: PI3K-alpha kinase (PIK3CA) activity, H1047R mutant, Transcreener ADP2 FI assay. To be noted: PI3K-α (PIK3CA) biochemical. As for the experimental part:
as §1, §2, §3

[4] abbreviates: PO 10 mg/kg, 20% DMSO/60% PEG400/20% Water.
The mark [5] stands for this setting: PO 50 mg/kg, 20% DMSO/60% PEG400/20% Water.
[6] abbreviates: PO 10 mg/kg, 30% SBE-beta-cyclodextrin.
Setting [7] is: PO 100 mg/kg, 20% DMSO/60% PEG400/20% H2O.

Sequence of human full length PIK3CA wild-type (p110α/p85α) (P42336 whole entry): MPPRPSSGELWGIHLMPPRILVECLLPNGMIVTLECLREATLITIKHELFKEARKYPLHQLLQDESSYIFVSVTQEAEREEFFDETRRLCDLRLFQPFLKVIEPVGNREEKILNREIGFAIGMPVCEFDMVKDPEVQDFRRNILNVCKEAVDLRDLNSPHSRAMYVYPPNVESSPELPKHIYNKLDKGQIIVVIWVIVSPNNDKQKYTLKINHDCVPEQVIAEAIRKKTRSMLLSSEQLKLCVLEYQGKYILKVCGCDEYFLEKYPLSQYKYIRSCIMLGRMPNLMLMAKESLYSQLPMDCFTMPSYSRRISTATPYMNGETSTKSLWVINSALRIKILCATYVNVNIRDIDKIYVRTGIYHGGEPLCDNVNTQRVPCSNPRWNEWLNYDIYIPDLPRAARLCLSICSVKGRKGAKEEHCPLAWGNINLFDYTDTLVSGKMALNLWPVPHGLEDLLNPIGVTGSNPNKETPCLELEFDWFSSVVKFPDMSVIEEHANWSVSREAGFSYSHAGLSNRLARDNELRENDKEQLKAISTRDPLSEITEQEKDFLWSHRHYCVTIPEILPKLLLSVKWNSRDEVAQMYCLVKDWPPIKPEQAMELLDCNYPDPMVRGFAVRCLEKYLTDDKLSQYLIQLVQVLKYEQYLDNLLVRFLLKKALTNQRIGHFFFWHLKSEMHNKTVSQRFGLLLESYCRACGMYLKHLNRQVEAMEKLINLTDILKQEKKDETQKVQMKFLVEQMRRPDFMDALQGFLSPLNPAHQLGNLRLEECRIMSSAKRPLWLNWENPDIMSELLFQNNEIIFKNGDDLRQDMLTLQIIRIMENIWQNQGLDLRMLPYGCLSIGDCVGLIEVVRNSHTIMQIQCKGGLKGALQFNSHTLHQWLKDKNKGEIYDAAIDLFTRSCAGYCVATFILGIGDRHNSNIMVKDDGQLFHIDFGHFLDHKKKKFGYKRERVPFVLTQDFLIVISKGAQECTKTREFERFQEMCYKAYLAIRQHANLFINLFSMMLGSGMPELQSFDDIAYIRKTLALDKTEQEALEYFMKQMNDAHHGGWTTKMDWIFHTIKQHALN
Sequence of human full length PIK3CA wild-type (p110α/p85α) (P27986 whole entry partner): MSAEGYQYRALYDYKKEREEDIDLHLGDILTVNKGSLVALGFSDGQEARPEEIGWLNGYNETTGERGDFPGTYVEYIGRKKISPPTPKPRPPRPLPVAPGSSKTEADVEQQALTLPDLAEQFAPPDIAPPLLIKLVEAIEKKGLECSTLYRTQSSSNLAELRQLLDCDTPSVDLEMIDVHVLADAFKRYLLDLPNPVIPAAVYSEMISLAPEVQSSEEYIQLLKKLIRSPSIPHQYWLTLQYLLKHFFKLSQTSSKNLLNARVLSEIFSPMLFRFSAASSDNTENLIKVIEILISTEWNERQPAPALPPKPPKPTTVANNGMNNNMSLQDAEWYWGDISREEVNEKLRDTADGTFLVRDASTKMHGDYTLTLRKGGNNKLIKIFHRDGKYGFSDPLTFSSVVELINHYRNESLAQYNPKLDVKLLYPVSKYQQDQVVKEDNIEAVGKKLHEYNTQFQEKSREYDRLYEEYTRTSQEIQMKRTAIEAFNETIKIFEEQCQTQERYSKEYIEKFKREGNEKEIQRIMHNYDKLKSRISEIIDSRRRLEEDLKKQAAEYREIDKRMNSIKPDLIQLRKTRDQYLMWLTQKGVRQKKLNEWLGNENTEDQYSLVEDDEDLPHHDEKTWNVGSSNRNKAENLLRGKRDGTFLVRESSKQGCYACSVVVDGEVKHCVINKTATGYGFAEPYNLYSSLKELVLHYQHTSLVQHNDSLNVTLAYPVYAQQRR
Sequence of human full length PIK3CA H1047R mutant (p110α/p85α) (P42336 whole entry H1047R): as the sequence (P42336 whole entry) above, with H1047R counted along it
Sequence of human full length PIK3CA H1047R mutant (p110α/p85α) (P27986 whole entry partner): as the sequence (P27986 whole entry partner) above

Consider `Cc1cc(C(C)Nc2ccccc2C(=O)O)c2oc(N3Cc4ccccc4C3)cc(=O)c2c1` (single isomer, unassigned) [Example 363, 2-[1-(2-Isoindolin-2-yl-6-methyl-4-oxo-chromen-8-yl)ethylamino]benzoic acid], for which, in data set [1] (setting [4]), the “PK-Mouse: F % Calcd” value is 86% and the “PK-Mouse: PO AUC-last/dose” value turned out to be 1800. Moreover, in data set [1] (setting [5]), the “PK-Mouse: F % Calcd” value is 33% and the “PK-Mouse: PO AUC-last/dose” value was found to be 700.

`Cc1cc(C(C)Nc2ccccc2C(=O)O)c2oc(N3CCC(C)(C)CC3)cc(=O)c2c1` (single isomer, unassigned) [Example 366, 2-[1-[2-(4,4-Dimethyl-1-piperidyl)-6-methyl-4-oxo-chromen-8-yl]ethylamino]benzoic acid]: the “PK-Mouse: F % Calcd” value was 110% in data set [1] (setting [6]), 280% in data set [1] (setting [5]) and 220% in data set [1] (setting [7]). For the same molecule, the entries for the “PK-Mouse: PO AUC-last/dose” value in data set [1] (setting [6]), in data set [1] (setting [5]) and in data set [1] (setting [7]) were 390, 960 and 760, respectively.

The IC50 is the concentration that inhibits the measured activity by half. With `Cc1cc([C@@H](C)Nc2ccc(Cl)nc2C(=O)O)c2oc(N3CCCCC3)c(C)c(=O)c2c1` [Example 309, 6-Chloro-3-[[(1R)-1-[3,6-dimethyl-4-oxo-2-(1-piperidyl)chromen-8-yl]ethyl]amino]pyridine-2-carboxylic acid], the 50% inhibitory concentration (IC50) in data set [2] and in data set [3] was below 500 nM each time.

Take `Cc1cc([C@@H](C)Nc2ccc(Cl)nc2C(=O)O)c2oc(N3CCC(F)(F)CC3)c(C)c(=O)c2c1` [Example 310, 6-Chloro-3-[[(1R)-1-[2-(4,4-difluoro-1-piperidyl)-3,6-dimethyl-4-oxo-chromen-8-yl]ethyl]amino]pyridine-2-carboxylic acid]: the IC50 in data set [2] and in data set [3] was below 500 nM each time.

As for `Cc1cc(C(C)Nc2ccc(B(O)O)cc2C(=O)O)c2oc(N3CCC(C)(C)CC3)cc(=O)c2c1` (centres unmarked) [Example 357, 5-Borono-2-[1-[2-(4,4-dimethyl-1-piperidyl)-6-methyl-4-oxo-chromen-8-yl]ethylamino]benzoic acid], the IC50 in data set [2] and in data set [3] was above 10000 nM in each case.

For the molecule `Cc1cc(C(C)Nc2ccccc2C(=O)O)c2oc(N3CCC(C)CC3)cc(=O)c2c1` (centres unmarked) [Example 370, 2-[1-[6-Methyl-2-(4-methyl-1-piperidyl)-4-oxo-chromen-8-yl]ethylamino]benzoic acid], the 50% inhibitory concentration (IC50) was above 10000 nM in data set [2] and below 500 nM in data set [3].

Take `CC(Nc1ccc(Cl)nc1C(=O)O)c1cc(F)cc2c(=O)cc(N3Cc4ccccc4C3)oc12` (centres unmarked) [Example 400, 6-Chloro-3-[1-(6-fluoro-2-isoindolin-2-yl-4-oxo-chromen-8-yl)ethylamino]pyridine-2-carboxylic acid 2,2,2-trifluoroacetic acid]: the 50% inhibitory concentration (IC50) in data set [2] and in data set [3] was below 500 nM in each case.
